Measured values reported in PubChem BioAssay (NCI).
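These data come from cells grown in 96-well plates and exposed to compound for 48 hours at five concentrations. TGI is the concentration that stops growth completely.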

Assays:
Experiment in all cases: growth of human tumour cells (NCI), 48 h
ACHN renal = system: ACHN renal
SK-OV-3 ovarian = system: SK-OV-3 ovarian
HS 578T breast = system: HS 578T breast
COLO 205 colon = system: COLO 205 colon
EKVX NSCLC = system: EKVX NSCLC
CAKI-1 renal = system: CAKI-1 renal
HCT-116 colon = system: HCT-116 colon
OVCAR-4 ovarian = system: OVCAR-4 ovarian
K-562 leukemia = system: K-562 leukemia
DU-145 prostate = system: DU-145 prostate

Row | Compound | TGI (ACHN renal) [µM] | TGI (SK-OV-3 ovarian) [µM] | TGI (HS 578T breast) [µM] | TGI (COLO 205 colon) [µM] | TGI (EKVX NSCLC) [µM] | TGI (CAKI-1 renal) [µM] | TGI (HCT-116 colon) [µM] | TGI (OVCAR-4 ovarian) [µM] | TGI (K-562 leukemia) [µM] | TGI (DU-145 prostate) [µM]
1 | NC(Cc1ncccn1)C(=O)O (stereo not given) | > 100 | > 100 | > 100 | > 100 | > 100 | > 100 | > 100 | > 100 | > 100 | > 100
2 | Cc1cccc2c(N)c3cccc(C(=O)NCC[N+]4(Cc5ccc([N+](=O)[O-])cc5)CCOCC4)c3nc12 | > 100 | > 100 | > 77 | > 100 | > 100 | > 100 | 58.5 | > 100 | > 100 | > 100
3 | Nc1c2c(nc3ccccc13)-c1ccccc1NCCC2 | > 100 | > 100 | > 100 | 35.2 | > 100 | > 100 | 94.3 | > 100 | > 100 | > 100
4 | N#Cc1c(-c2ccc(Cl)cc2)c2c(N=Nc3c(O)ccc4ccccc34)[nH]nc2[nH]c1=O | 0.492 | 1.58 | 3.96 | 2.66 | 2.19 | 1.26 | 1.62 | 3.68 | > 20.7 | 1.07
5 | O=S(=O)(O)c1ccc2c(N=Nc3ccc(Cl)cc3)c(O)ccc2c1 | > 100 | > 100 | > 100 | > 100 | > 100 | > 100 | > 100 | > 100 | > 100 | > 100
6 | CC(C)(C)OC(=O)Cn1ncn(NC(=O)Cc2ccccc2)c1=O | > 10 | > 10 | > 10 | > 10 | > 10 | > 10 | > 10 | > 10 | > 10 | > 10
7 | CN(C)c1cccc2c1C(=O)C=CC21CCc2ccc(N(C)C)c3c(N(C)C)ccc1c23 (stereo not given) | 26.2 | 27 | 66.8 | 29 | 63.1 | 40 | 22.9 | 83.4 | 24.2 | 17.5
8 | Cc1cccc(C)c1Nc1nc(C)c(C(=O)CC(=O)C(=O)Nc2c(C(C)C)cccc2C(C)C)s1 | > 100 | > 100 | > 100 | > 100 | > 100 | > 100 | > 100 | > 100 | > 100 | > 100
9 | CCCC1(CCC)c2cc(/C=N\O)ccc2-c2ccc(-c3ccc(C(C)(C)C)cc3)cc21 | > 100 | > 100 | > 100 | > 100 | > 100 | > 100 | 54.8 | > 100 | > 100 | > 100
10 | CC1(C)OC[C@@H](O)[C@H](Br)CO1 | > 100 | > 100 | > 100 | > 100 | > 100 | > 100 | > 100 | > 100 | > 100 | > 100
11 | CC(C)(C)C1=CC(=C2C=Cc3ccccc3O2)C=C(C(C)(C)C)C1=O | 19.2 | > 42.4 | > 47.6 | 4.71 | 43.6 | 29.6 | 11.4 | 16.8 | 29.9 | 20.8
12 | NC(=O)c1c(NC=O)ncn1C1OCC(O)C(O)C1O (stereo not given) | > 100 | > 100 | > 100 | > 100 | > 100 | > 100 | > 100 | > 100 | > 100 | > 100
13 | CC(C)/C(=N\[N+](C)(C)C)c1ccccc1 | > 100 | > 100 | > 100 | > 100 | > 100 | > 100 | > 100 | > 100 | > 100 | > 100
14 | COc1c2c(cc3c1C1(O)Cc4ccc5c(c4C[N+]1(C)CC3)OCO5)OCO2 (stereo not given) | > 100 | > 100 | > 100 | > 100 | > 100 | > 100 | > 100 | > 100 | > 100 | > 100
15 | COC(=O)/C=C\C(C#N)(C#N)N=Cc1sccc1C | 3.8 | 34.1 | 37.1 | 2.53 | 15 | 3.51 | 6.69 | 10.3 | > 100 | 13.4
16 | CCOC(=O)C(O)(C(=O)OCC)c1cc(C(C)(C)C)c(O)c(C(C)(C)C)c1 | > 100 | > 100 | > 100 | 90.1 | > 100 | > 100 | > 100 | > 100 | > 100 | > 100
17 | CSc1c(CC(=O)Nc2ccc(Cl)cc2)n(Cc2ccccc2)c2ccccc12 | > 100 | > 100 | 69.4 | > 100 | > 100 | > 100 | > 100 | 35.5 | > 100 | > 100
